Data published in patent publication US8299093B2, “Small molecule inhibitors of retroviral assembly and maturation” (New York Blood Center, Inc., priority 2008, dated 2012).
Read-outs that look alike come from different tables or passages of the source.

What was measured:
HIV-1 = experiment: Inhibition of HIV-1 infectivity (p24 ELISA) in MT-2 cells, laboratory-adapted HIV-1 strains; assay type: cell-based; conditions: Human immunodeficiency virus 1, MT2, 96 h, MT-2 cells, p24 ELISA day 4
Protocol: AZT was used as a positive control in the infectivity assays. In brief, 1×10^4 MT-2 cells (lymphocytes) were infected with HIV-1 at 100 TCID50 (50% tissue culture infective dose, 0.01 MOI [multiplicity of infection]) in 200 μL RPMI 1640 medium containing 10% FBS in the presence or absence of small molecules at graded concentrations overnight. The culture supernatants were then removed and fresh media containing freshly prepared test compounds were added. On the fourth day post-infection, 100 μL of culture supernatants were collected from each well, mixed with equal volume of 5% TRITON X-100® and tested for p24 antigen by ELISA®.

[1] = XTT cytotoxicity assay in MT-2 cells; assay type: cell-based; conditions: human, cell type not given
Protocol: Briefly, for MT-2 cells, 100 μL of small molecule at graded concentrations was added to an equal volume of cells (5×10^4 cells/ml) in 96-well plates followed by incubation at 37° C. for 4 days, which ran parallel to the neutralization assay in MT-2 (except medium was added instead of virus). In the case of PBMC, 2.5×10^5 cells/mL were used and the cytotoxicity was measured after 7 days. After addition of XTT (PolySciences, Inc.), the soluble intracellular formazan was quantitated calorimetrically at 450 nm 4 hours later with a reference at 620 nm. The CC50 values were calculated.

[2] = read-out: IC50 (concentration that provides 50% inhibition of HIV-1 p24), Table 1, formula I
[3] = Table 1, formula I, read-out: CC50 (concentration that causes 50% cytotoxicity)
[4] = Table 2, formula II, read-out: CC50

Structure (SMILES) | IC50 (HIV-1; [2]) [µM] | CC50 [1, 3] [µM] | IC50 (HIV-1; Table 2, formula II) [µM] | CC50 [1, 4] [µM]
COc1ccc2cc(CN(Cc3ccc4c(c3)OCO4)C(=S)Nc3ccc(C)cc3)c(=O)[nH]c2c1 [NYAD-S2] | > 10 | > 10 | – | –
CCc1ccc2[nH]c(=O)c(CN(Cc3cccnc3)C(=S)NCC3CCCO3)cc2c1 (centres unmarked) [NYAD-S3] | > 10 | > 10 | – | –
Cc1cc(C)c2[nH]c(=O)c(CN(CCO)C(=S)Nc3ccc(F)cc3)cc2c1 [NYAD-S4] | > 10 | > 10 | – | –
COc1ccc2[nH]c(=O)c(CN(Cc3cccnc3)C(=S)Nc3ccc(F)cc3)cc2c1 [NYAD-S5] | > 10 | > 10 | – | –
Cc1ccc2[nH]c(=O)c(CN(Cc3ccco3)S(=O)(=O)c3ccc(Cl)cc3)cc2c1 [NYAD-S6-4] | < 10 | > 10 | – | –
Cc1ccc2[nH]c(=O)c(CN(Cc3ccco3)C(=O)c3ccc(Cl)c(Cl)c3)cc2c1 [NYAD-S6-6] | < 10 | > 10 | – | –
Cc1ccc2[nH]c(=O)c(CN(Cc3ccco3)C(=O)c3ccc(Cl)c(N4CCCCC4)c3)cc2c1 [NYAD-S6-8] | < 10 | > 10 | – | –
Cc1ccc2[nH]c(=O)c(CN(Cc3ccco3)C(=O)c3ccc(F)c(Cl)c3)cc2c1 [NYAD-S6-10] | < 10 | > 10 | – | –
Cc1ccc2[nH]c(=O)c(CN(Cc3ccco3)C(=O)c3ccc(F)c(C)c3)cc2c1 [NYAD-S6-19] | < 10 | > 10 | – | –
Cc1ccc2[nH]c(=O)c(CN(Cc3ccco3)C(=O)c3ccc(F)c(F)c3)cc2c1 [NYAD-S6-21] | < 10 | > 10 | – | –
Cc1cc(=O)n2c3ccccc3n(CC(O)CN3CCCC3)c2c1C#N (centres unmarked) [NYAD-S9] | – | – | > 10 | > 10
Cc1cc(=O)n2c3ccccc3n(CC(O)CNc3ccccc3)c2c1C#N (centres unmarked) [NYAD-S10] | – | – | > 10 | > 10
Cc1cc(=O)n2c3ccccc3n(CC(O)CN3CCCCC3)c2c1C#N (centres unmarked) [NYAD-S12] | – | – | > 10 | > 10
Cc1cc(=O)n2c3ccccc3n(CC(O)CN3CCOCC3)c2c1C#N (centres unmarked) [NYAD-S13] | – | – | > 10 | > 10
Cc1ccccc1N1CCN(CC(O)Cn2c3ccccc3n3c(=O)cc(C)c(C#N)c23)CC1 (centres unmarked) [NYAD-S14] | – | – | > 10 | > 10
Cc1cc(=O)n2c3ccccc3n(CC(O)Cn3ccnc3)c2c1C#N (centres unmarked) [NYAD-S15] | – | – | > 10 | > 10
Cc1cc(=O)n2c3ccccc3n(CC(O)CN3CCN(CCOc4ccc(Cl)cc4)CC3)c2c1C#N (centres unmarked) [NYAD-S16] | – | – | < 10 | > 10
Cc1cc(=O)n2c3ccccc3n(CC(O)CN3CCN(CCO)CC3)c2c1C#N (centres unmarked) [NYAD-S18] | – | – | > 10 | > 10
COc1ccc(CCNCC(O)Cn2c3ccccc3n3c(=O)cc(C)c(C#N)c23)cc1OC (centres unmarked) [NYAD-S19] | – | – | > 10 | > 10
CCC(=O)N(Cc1ccco1)Cc1cc2cc(C)ccc2[nH]c1=O [NYAD-S20] | > 10 | > 10 | – | –
Cc1cccc2cc(CN(Cc3ccco3)C(=O)c3ccccc3)c(=O)[nH]c12 [NYAD-S21] | < 10 | > 10 | – | –
Cc1cccc2cc(CN(Cc3ccccc3)C(=O)c3ccco3)c(=O)[nH]c12 [NYAD-S22] | > 10 | > 10 | – | –

Structure (SMILES) | IC50 (HIV-1; [2]) [µM] | CC50 [1, 3] [µM] | IC50 (HIV-1; Table 2, formula II) [µM] | CC50 [1, 4] [µM]
Cc1cccc2cc(CN(Cc3ccco3)C(=O)c3ccc(C(C)(C)C)cc3)c(=O)[nH]c12 [NYAD-S23] | > 10 | > 10 | – | –
CCOc1ccc(C(=O)N(Cc2ccco2)Cc2cc3ccc(C)cc3[nH]c2=O)cc1 [NYAD-S24] | > 10 | > 10 | – | –
Cc1cccc2cc(CN(Cc3ccco3)C(=O)c3cccs3)c(O)nc12 [NYAD-S25] | > 10 | > 10 | – | –
Cc1cccc(C(=O)N(Cc2ccco2)Cc2cc3cccc(C)c3[nH]c2=O)c1 [NYAD-S26] | > 10 | > 10 | – | –
Cc1ccc2cc(CN(Cc3ccco3)C(=O)c3ccccc3)c(=O)[nH]c2c1 [NYAD-S27] | > 10 | > 10 | – | –
Cc1ccc2cc(CN(Cc3ccco3)C(=O)c3ccc(F)cc3)c(=O)[nH]c2c1 [NYAD-S28] | > 10 | > 10 | – | –
COc1ccccc1C(=O)N(Cc1ccco1)Cc1cc2ccc(C)cc2[nH]c1=O [NYAD-S29] | > 10 | > 10 | – | –
Cc1cccc2cc(CN(Cc3ccco3)C(=O)c3cccnc3)c(=O)[nH]c12 [NYAD-S30] | > 10 | > 10 | – | –
Cc1ccccc1C(=O)N(Cc1ccco1)Cc1cc2cccc(C)c2[nH]c1=O [NYAD-S31] | > 10 | > 10 | – | –
Cc1cccc2cc(CN(Cc3ccco3)C(=O)c3ccccc3F)c(=O)[nH]c12 [NYAD-S32] | > 10 | > 10 | – | –
Cc1cccc2cc(CN(Cc3ccco3)C(=O)c3ccc(F)cc3)c(=O)[nH]c12 [NYAD-S33] | > 10 | > 10 | – | –
Cc1ccc2cc(CN(Cc3ccco3)C(=O)c3ccccc3F)c(=O)[nH]c2c1 [NYAD-S34] | > 10 | > 10 | – | –
Cc1cccc2cc(CN(Cc3ccccc3)C(=O)c3cccc(Cl)c3)c(=O)[nH]c12 [NYAD-S35] | > 10 | > 10 | – | –
Cc1ccc2[nH]c(=O)c(CN(Cc3ccco3)C(=O)c3ccc(Br)cc3)cc2c1 [NYAD-S36] | < 10 | > 10 | – | –
Cc1ccc2[nH]c(=O)c(CN(Cc3ccccc3)C(=O)c3ccco3)cc2c1 [NYAD-S37] | < 10 | > 10 | – | –
Cc1cccc(C(=O)N(Cc2ccco2)Cc2cc3ccc(C)cc3[nH]c2=O)c1 [NYAD-S40] | > 10 | > 10 | – | –
COc1ccc(C(=O)N(Cc2ccco2)Cc2cc3cc(C)ccc3[nH]c2=O)cc1OC [NYAD-S41] | > 10 | > 10 | – | –
Cc1ccc2[nH]c(=O)c(CN(CC3CCCO3)C(=O)c3ccco3)cc2c1 (centres unmarked) [NYAD-S42] | > 10 | > 10 | – | –
Cc1cc2cc(CN(Cc3ccco3)C(=O)C3CCCCC3)c(=O)[nH]c2cc1C [NYAD-S43] | > 10 | > 10 | – | –
Cc1ccc2[nH]c(=O)c(CN(Cc3ccco3)C(=O)c3cccs3)cc2c1 [NYAD-S44] | > 10 | > 10 | – | –
Cc1ccc2[nH]c(=O)c(CN(Cc3ccco3)C(=O)c3ccccc3)cc2c1 [NYAD-S45] | < 10 | > 10 | – | –
Cc1ccc2[nH]c(=O)c(CN(Cc3cccnc3)C(=O)c3ccco3)cc2c1 [NYAD-S46] | > 10 | > 10 | – | –

Structure (SMILES) | IC50 (HIV-1; [2]) [µM] | CC50 [1, 3] [µM] | IC50 (HIV-1; Table 2, formula II) [µM] | CC50 [1, 4] [µM]
Cc1ccc2cc(CN(CC3CCCO3)C(=O)c3ccco3)c(=O)[nH]c2c1C (centres unmarked) [NYAD-S47] | > 10 | > 10 | – | –
Cc1ccc2cc(CN(Cc3ccccc3)C(=O)c3ccco3)c(=O)[nH]c2c1C [NYAD-S48] | > 10 | > 10 | – | –
Cc1ccc2[nH]c(=O)c(CN(Cc3ccco3)C(=O)c3ccccc3F)cc2c1 [NYAD-S49] | > 10 | > 10 | – | –
Cc1cccc(C(=O)N(Cc2ccco2)Cc2cc3cc(C)ccc3[nH]c2=O)c1 [NYAD-S50] | > 10 | > 10 | – | –
Cc1cccc2cc(CN(Cc3ccco3)C(=O)N3CCOCC3)c(=O)[nH]c12 [NYAD-S51] | > 10 | > 10 | – | –
Cc1ccc(NCC(O)Cn2c3ccccc3n3c(=O)cc(C)c(C#N)c23)cc1 (centres unmarked) [NYAD-S52] | – | – | > 10 | > 10
COc1ccc(NCC(O)Cn2c3ccccc3n3c(=O)cc(C)c(C#N)c23)cc1 (centres unmarked) [NYAD-S53] | – | – | > 10 | > 10
CCC1CCCCN1CC(O)Cn1c2ccccc2n2c(=O)cc(C)c(C#N)c12 (centres unmarked) [NYAD-S54] | – | – | > 10 | > 10
Cc1ccc(NCC(O)Cn2c3ccccc3n3c(=O)cc(C)c(C#N)c23)cc1C (centres unmarked) [NYAD-S55] | – | – | > 10 | > 10
CCOc1ccc(NCC(O)Cn2c3ccccc3n3c(=O)cc(C)c(C#N)c23)cc1 (centres unmarked) [NYAD-S56] | – | – | > 10 | > 10
Cc1ccc(NCC(O)Cn2c3ccccc3n3c(=O)cc(C)c(C#N)c23)cc1Cl (centres unmarked) [NYAD-S57] | – | – | > 10 | > 10
Cc1cc(C)cc(NCC(O)Cn2c3ccccc3n3c(=O)cc(C)c(C#N)c23)c1 (centres unmarked) [NYAD-S58] | – | – | > 10 | > 10
Cc1cc(=O)n2c3ccccc3n(CC(O)CNc3ccc(C(C)C)cc3)c2c1C#N (centres unmarked) [NYAD-S59] | – | – | < 10 | < 10
CCc1ccc(NCC(O)Cn2c3ccccc3n3c(=O)cc(C)c(C#N)c23)cc1 (centres unmarked) [NYAD-S60] | – | – | > 10 | < 10
COc1ccc2[nH]c(=O)c(CN(Cc3ccco3)C(=O)c3ccccc3C)cc2c1 [NYAD-S61] | > 10 | > 10 | – | –
Cc1cc(=O)n2c3ccccc3n(CC(O)CCl)c2c1C#N (centres unmarked) [NYAD-S62] | – | – | > 10 | > 10
Cc1cc(=O)n2c3ccccc3n(CC(O)CNc3ccc(Cl)cc3)c2c1C#N (centres unmarked) [NYAD-S63] | – | – | > 10 | > 10
Cc1cc(=O)n2c3ccccc3n(CC(O)CN3CCC(C)CC3)c2c1C#N (centres unmarked) [NYAD-S64] | – | – | > 10 | > 10
COc1cccc(NCC(O)Cn2c3ccccc3n3c(=O)cc(C)c(C#N)c23)c1 (centres unmarked) [NYAD-S65] | – | – | > 10 | > 10
Cc1cc(C)c2[nH]c(=O)c(CN(Cc3ccco3)C(=O)c3ccccc3)cc2c1 [NYAD-S80] | > 10 | > 10 | – | –
